According to US20050096278A1, “Antibacterial agents” (priority 2003, published 2005):
≈ marks a conversion by molar mass, not a printed value.

Legend:
Assay in all cases: Antibacterial assay (standard microtitration), MIC
Type in all cases: cell-based
[1] = system: E. coli MC4100; conditions: Escherichia coli, MC4100; Gram Negative Bacteria; Table 1A; read-out: Minimum Inhibitory Concentrations, E. coli MC4100
Procedure: (§1) Test A—Antibacterial Assays
(§2) The compounds of the present invention were tested against an assortment of Gram-negative and Gram-positive organisms using standard microtitration techniques (Cohen et. al., Antimicrob., 1985;28:766; Heifetz, et. al., Antimicrob., 1974;6:124). The results of the evaluation are shown in Tables 1A and B. In the tables, “—” means no data.

[2] = system: H. influenzae HI-3542; conditions: Haemophilus influenzae, HI3542; Gram Negative Bacteria; Table 1A; read-out: Minimum Inhibitory Concentrations, H. influenzae HI-3542
Procedure: as §1, §2

[3] = system: M. catarrhalis BC-3531; conditions: Moraxella catarrhalis, BC3531; Gram Negative Bacteria; Table 1A; read-out: Minimum Inhibitory Concentrations, M. catarrhalis BC-3531
Procedure: as §1, §2

[4] = system: E. faecalis MGH-2; conditions: Gram Positive Bacteria, Table 1B; for MIC: Enterococcus faecalis, MGH2, read-out: Minimum Inhibitory Concentrations, E. faecalis MGH-2
Procedure: as §1, §2

[5] = system: S pyogenes C203; conditions: Gram Positive Bacteria, Table 1B; for MIC: read-out: Minimum Inhibitory Concentrations, S pyogenes C203
Procedure: as §1, §2

[6] = system: S. aureus UC-76; conditions: Table 1B; for MIC: Staphylococcus aureus, UC76, Gram Positive Bacteria, read-out: Minimum Inhibitory Concentrations, S. aureus UC-76; for Minimum Inhibitory Concentrations, S. aureus UC-76: Gram Positive Bacteria
Procedure: as §1, §2

Structure (SMILES) | MIC [4] [µg/mL] | MIC [5] [µg/mL] | MIC [6] [µg/mL] | other results
COc1c(N2CCC(O)C(O)C2)c(F)cc2c(=O)c(C(=O)O)cn(C3CC3)c12 (centres unmarked) [drawing 338] | – | – | – | MIC [1]: 0.25 µg/mL (≈ 0.637 µM); MIC [2]: 0.008 µg/mL (≈ 0.0204 µM); MIC [3]: 0.125 µg/mL (≈ 0.319 µM)
COc1c(N2CCCC(O)C2)c(F)cc2c(=O)c(C(=O)O)cn(C3CC3)c12 (centres unmarked) [drawing 339] | – | – | – | MIC [1]: 0.125 µg/mL (≈ 0.332 µM); MIC [2]: 0.002 µg/mL (≈ 0.00531 µM); MIC [3]: 0.03 µg/mL (≈ 0.0797 µM)
Cc1c(N2CCCC(O)C2)c(F)cc2c(=O)c(C(=O)O)cn(C3CC3)c12 (centres unmarked) [drawing 340] | – | – | – | MIC [1]: 0.125 µg/mL (≈ 0.347 µM); MIC [2]: 0.015 µg/mL (≈ 0.0416 µM); MIC [3]: 0.03 µg/mL (≈ 0.0832 µM)
Cc1c(N2CCCC(C)(O)C2)c(F)cc2c(=O)c(C(=O)O)cn(C3CC3)c12 (centres unmarked) [drawing 341] | – | – | – | MIC [1]: 0.5 µg/mL (≈ 1.34 µM); MIC [2]: 0.06 µg/mL (≈ 0.16 µM); MIC [3]: 0.125 µg/mL (≈ 0.334 µM)
COc1c(N2CCC3(CC2)OCCO3)c(F)cc2c(=O)c(C(=O)O)cn(C3CC3)c12 [drawing 343] | 0.25 (≈ 0.597 µM) | 0.25 (≈ 0.597 µM) | 0.015 (≈ 0.0358 µM) | –
Cc1c(N2CCC(CCO)CC2)c(F)cc2c(=O)c(C(=O)O)cn(C3CC3)c12 [drawing 345] | 0.03 (≈ 0.0772 µM) | 0.06 (≈ 0.154 µM) | 0.004 (≈ 0.0103 µM) | –
COc1c(N2CCC(C(O)CO)CC2)c(F)cc2c(=O)c(C(=O)O)cn(C3CC3)c12 (centres unmarked) [drawing 346] | 0.25 (≈ 0.595 µM) | 0.25 (≈ 0.595 µM) | 0.015 (≈ 0.0357 µM) | –
COc1c(N2CCC(O)(CO)CC2)c(F)cc2c(=O)c(C(=O)O)cn(C3CC3)c12 [drawing 347] | 1 (≈ 2.46 µM) | 1 (≈ 2.46 µM) | 0.015 (≈ 0.0369 µM) | –
COc1c(N2CCC(CO)CC2)c(F)cc2c(=O)c(C(=O)O)cn(C3CC3)c12 [drawing 348] | 0.125 (≈ 0.32 µM) | 0.125 (≈ 0.32 µM) | 0.015 (≈ 0.0384 µM) | –
Cc1c(N2CCC(O)C(C)(C)C2)c(F)cc2c(=O)c(C(=O)O)cn(C3CC3)c12 (centres unmarked) [drawing 349] | 8 (≈ 20.6 µM) | 8 (≈ 20.6 µM) | 0.25 (≈ 0.644 µM) | –
COc1c(N2CCC(O)C(C)(C)C2)c(F)cc2c(=O)c(C(=O)O)cn(C3CC3)c12 (centres unmarked) [drawing 350] | 0.25 (≈ 0.618 µM) | 0.5 (≈ 1.24 µM) | 0.015 (≈ 0.0371 µM) | –
COc1c(N2CCC(O)C(C)C2)c(F)cc2c(=O)c(C(=O)O)cn(C3CC3)c12 (centres unmarked) [drawing 351] | 0.125 (≈ 0.32 µM) | 0.25 (≈ 0.64 µM) | – | Minimum Inhibitory Concentrations, S. aureus UC-76 [6]: 0.008 µg/mL
COc1c(N2CCC(O)(c3ccccc3)CC2)c(F)cc2c(=O)c(C(=O)O)cn(C3CC3)c12 [drawing 352] | 32 (≈ 70.7 µM) | 2 (≈ 4.42 µM) | 0.25 (≈ 0.553 µM) | –
COc1c(N2CCCC(C(O)CO)C2)c(F)cc2c(=O)c(C(=O)O)cn(C3CC3)c12 (centres unmarked) [drawing 353] | 8 (≈ 19 µM) | 2 (≈ 4.76 µM) | 1 (≈ 2.38 µM) | –
COc1c(N2CCCC(CO)C2)c(F)cc2c(=O)c(C(=O)O)cn(C3CC3)c12 (centres unmarked) [drawing 354] | 0.125 (≈ 0.32 µM) | 0.25 (≈ 0.64 µM) | 0.015 (≈ 0.0384 µM) | –
COc1c(N2CCCC(O)(CO)C2)c(F)cc2c(=O)c(C(=O)O)cn(C3CC3)c12 (centres unmarked) [drawing 355] | 1 (≈ 2.46 µM) | 2 (≈ 4.92 µM) | 0.06 (≈ 0.148 µM) | –
COc1c(N2CCC(O)C(C)C2)c(F)cc2c(=O)c(C(=O)O)cn(C3CC3)c12 (centres unmarked) [drawing 356] | – | – | – | Minimum Inhibitory Concentrations, E. faecalis MGH-2 [4]: 0.125 µg/mL; Minimum Inhibitory Concentrations, S pyogenes C203 [5]: 0.25 µg/mL; Minimum Inhibitory Concentrations, S. aureus UC-76 [6]: 0.0008 µg/mL
COc1c(N2CCC(O)C(O)C2)c(F)cc2c(=O)c(C(=O)O)cn(C3CC3)c12 (centres unmarked) [drawing 357] | 0.125 (≈ 0.319 µM) | 0.125 (≈ 0.319 µM) | 0.008 (≈ 0.0204 µM) | –
COc1c(N2CCCC(O)C2)c(F)cc2c(=O)c(C(=O)O)cn(C3CC3)c12 (centres unmarked) [drawing 358] | 0.002 (≈ 0.00531 µM) | 0.125 (≈ 0.332 µM) | 0.03 (≈ 0.0797 µM) | –
Cc1c(N2CCCC(O)C2)c(F)cc2c(=O)c(C(=O)O)cn(C3CC3)c12 (centres unmarked) [drawing 359] | 0.125 (≈ 0.347 µM) | 0.125 (≈ 0.347 µM) | 0.015 (≈ 0.0416 µM) | –
Cc1c(N2CCCC(C)(O)C2)c(F)cc2c(=O)c(C(=O)O)cn(C3CC3)c12 (centres unmarked) [drawing 360] | 0.5 (≈ 1.34 µM) | 0.03 (≈ 0.0801 µM) | – | –
